Experimental data from patent publication US20110105541A1, “ALKYL SUBSTITUTED ARYLINDENOPYRIMIDINES AND THEIR USE AS HIGHLY SELECTIVE ADENOSINE A2a RECEPTOR ANTAGONISTS” (priority 2009, published 2011).

Legend:
[1] = target: T1, human adenosine A2A receptor (Homo sapiens, UniProt P29274); assay: Adenosine A2A receptor functional assay (A2AGAL2), cAMP inducible beta-galactosidase reporter, NECA challenge; type: cell-based; conditions: for IC50: CHO-K1 cells overexpressing human A2A receptor, antagonist curve against 15 nM NECA; for A1/A2A: ratio of A1Gal2 to A2AGal2 values (selectivity for A2A over A1)
T1 construct: expressed in transfected cells; host or cells: CHO-K1
Procedure: Adenosine A2 Receptor Functional Assay (A2AGAL2)
To initiate the functional assay, cryopreserved CHO—K1 cells overexpressing the human adenosine A2A receptor and containing a cAMP inducible beta-galactosidase reporter gene were thawed, centrifuged, DMSO containing media removed, and then seeded with fresh culture media into clear 384-well tissue culture treated plates (BD #353961) at a concentration of 10K cells/well. Prior to assay, these plates were cultured for two days at 37° C., 5% CO2, 90% Rh. On the day of the functional assay, culture media was removed and replaced with 45 μL assay medium (Hams/F-12 Modified (Mediatech # 10-080CV) supplemented w/0.1% BSA). Test compounds were diluted and 11 point curves created at a 1000× concentration in 100% DMSO. Immediately after addition of assay media to the cell plates, […] of the appropriate test compound antagonist or agonist control curves were added to cell plates using a Cartesian Hummingbird. Compound curves were allowed to incubate at room temperature on cell plates for approximately 15 minutes before addition of a 15 nM NECA (Sigma E2387) agonist challenge (5 μL volume). A control curve of NECA, a DMSO/Media control, and a single dose of Forskolin (Sigma F3917) were also included on each plate. After additions, cell plates were allowed to incubate at 37° C., 5% CO2, 90% Rh for 5.5-6 hours. After incubation, media were removed, and cell plates were washed 1×50 μL with DPBS w/o Ca & Mg (Mediatech 21-031-CV). Into dry wells, 20 μL of 1× Reporter Lysis Buffer (Promega E3971 (diluted in dH2O from 5× stock)) was added to each well and plates frozen at −20° C. overnight. For β-galactosidase enzyme colorimetric assay, plates were thawed out at room temperature and 20 μL 2× assay buffer (Promega) was added to each well. Color was allowed to develop at 37° C., 5% CO2, 90% Rh for 1-1.5 h or until reasonable signal appeared. The colorimetric reaction was stopped with the addition of 60 μL/well 1M sodium carbonate. Plates were counted at 405 nm on a SpectraMax Microplate Reader (Molecular Devices). Data was analyzed in Microsoft Excel and IC/EC50 curves were fit using a standardized macro.

[2] = target: T2, human adenosine A1 receptor (Homo sapiens, UniProt P30542); assay: Adenosine A1 receptor functional assay (A1GAL2), cAMP inducible beta-galactosidase reporter, r-PIA/Forskolin challenge; type: cell-based; conditions: CHO-K1 cells overexpressing human A1 receptor; antagonist curve against 4 nM r-PIA/1 uM Forskolin
T2 construct: expressed in transfected cells; host or cells: CHO-K1
T2 sequence (P30542 1-326): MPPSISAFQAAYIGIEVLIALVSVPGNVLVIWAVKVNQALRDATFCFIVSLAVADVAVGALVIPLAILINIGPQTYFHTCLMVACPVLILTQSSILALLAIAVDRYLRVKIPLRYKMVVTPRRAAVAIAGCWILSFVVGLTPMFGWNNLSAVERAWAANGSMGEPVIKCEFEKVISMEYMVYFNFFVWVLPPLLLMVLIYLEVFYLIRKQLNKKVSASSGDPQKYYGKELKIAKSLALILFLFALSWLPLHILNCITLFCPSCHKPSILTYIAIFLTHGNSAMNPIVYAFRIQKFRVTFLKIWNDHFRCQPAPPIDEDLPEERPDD
Procedure: Adenosine A1 Receptor Functional Assay (A1GAL2)
To initiate the functional assay, cryopreserved CHO—K^1 cells overexpressing the human adenosine A1 receptor and containing a cAMP inducible beta-galactosidase reporter gene were thawed, centrifuged, DMSO containing media removed, and then seeded with fresh culture media into clear 384-well tissue culture treated plates (BD #353961) at a concentration of 10K cells/well. Prior to assay, these plates were cultured for two days at 37° C., 5% CO2, 90% Rh. On the day of the functional assay, culture media was removed and replaced with 45 μL assay medium (Hams/F-12 Modified (Mediatech # 10-080CV) supplemented w/0.1% BSA). Test compounds were diluted and 11 point curves created at a 1000× concentration in 100% DMSO. Immediately after addition of assay media to the cell plates, […] of the appropriate test compound antagonist or agonist control curves were added to cell plates using a Cartesian Hummingbird. Compound curves were allowed to incubate at room temperature on cell plates for approximately 15 minutes before addition of a 4 nM r-PIA (Sigma P4532)/1 uM Forskolin (Sigma F3917) agonist challenge (5 μL volume). A control curve of r-PIA in 1 uM Forskolin, a DMSO/Media control, and a single dose of Forskolin were also included on each plate. After additions, cell plates were allowed to incubate at 37° C., 5% CO2, 90% Rh for 5.5-6 hours. After incubation, media was removed, and cell plates were washed 1×50 μL with DPBS w/o Ca & Mg (Mediatech 21-031-CV). Into dry wells, 20 μL of 1× Reporter Lysis Buffer (Promega E3971 (diluted in dH2O from 5× stock)) was added to each well and plates frozen at −20° C. overnight. For β-galactosidase enzyme colorimetric assay, plates were thawed out at room temperature and 20 μL 2× assay buffer (Promega) was added to each well. Color was allowed to develop at 37° C., 5% CO2, 90% Rh for 1-1.5 h or until reasonable signal appeared. […] Plates were counted at 405 nm on a SpectraMax Microplate Reader (Molecular Devices). Data was analyzed in Microsoft Excel and IC/EC50 curves were fit using a standardized macro.

T1 sequence (P29274 whole entry): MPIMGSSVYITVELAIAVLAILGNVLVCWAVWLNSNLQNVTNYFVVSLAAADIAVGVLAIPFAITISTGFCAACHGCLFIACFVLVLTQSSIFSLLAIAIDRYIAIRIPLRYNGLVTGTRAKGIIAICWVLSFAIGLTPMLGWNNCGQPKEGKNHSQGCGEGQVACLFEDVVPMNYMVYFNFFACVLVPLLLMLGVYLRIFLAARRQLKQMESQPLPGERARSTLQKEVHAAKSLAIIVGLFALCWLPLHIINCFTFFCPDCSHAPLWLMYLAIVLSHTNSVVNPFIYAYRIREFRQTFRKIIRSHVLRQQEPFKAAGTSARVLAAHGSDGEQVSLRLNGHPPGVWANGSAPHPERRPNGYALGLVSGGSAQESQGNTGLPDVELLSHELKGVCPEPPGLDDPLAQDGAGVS

SMILES | IC50 [1] [nM] | A1/A2A [1] | IC50 [2] [nM]
Cc1nc(C)c(Cc2cccc3c2-c2nc(N)nc(-c4ccc(F)cc4)c2C3=O)s1 [Example 1, 2-Amino-9-(2,4-dimethyl-thiazol-5-ylmethyl)-4-(4-fluoro-phenyl)-indeno[1,2-d]pyrimidin-5-one] | 11.9 | 276.249 | 3280
Nc1nc(-c2ccc(F)cc2)c2c(n1)-c1c(Cc3cn[nH]c3)cccc1C2=O [Example 2, 2-Amino-4-(4-fluoro-phenyl)-9-(1H-pyrazol-4-ylmethyl)-indeno[1,2-d]pyrimidin-5-one] | 0.75 | 195.975 | 147
Cc1noc(C)c1Cc1cccc2c1-c1nc(N)nc(-c3ccc(F)cc3)c1C2=O [Example 3, 2-Amino-9-(3,5-dimethyl-isoxazol-4-ylmethyl)-4-(4-fluoro-phenyl)-indeno[1,2-d]pyrimidin-5-one] | 41.3 | 64.5654 | 2670
